Experimental data published in patent US11760741B2, “Pro-drugs of eliglustat” (KASHIV BIOSCIENCES, LLC, priority 2018, dated 2023).
Structures can show the parent of a compound that is named as a salt.

Experiments:
[1] = Metabolic stability of prodrugs in human liver microsomes; details: pH 7.4
in vitro = details: human, microsomes, pH 7.4
[2] = human, microsomes

SMILES | half-life [1] | further results
CCCCCCCC(=O)N[C@H](CN1CCCC1)[C@H](OC(=O)N(CC)CC)c1ccc2c(c1)OCCO2 [I-n Hemitartrate salt, (1R,2R)-1-(2,3-dihydrobenzo[b][1,4]dioxin-6-yl)-2-octanamido-3-(pyrrolidin-1-yl)propyl diethylcarbamate] | < 30 min | –
CCCCCCCC(=O)N[C@H](CN1CCCC1)[C@H](OC(=O)CCCC(=O)O)c1ccc2c(c1)OCCO2 [I-t, 5-((1R,2R)-1-(2,3-dihydrobenzo[b][1,4]dioxin-6-yl)-2-octanamido-3-(pyrrolidin-1-yl)propoxy)-5-oxopentanoic acid] | 65 min | –
CCCCCCCC(=O)N[C@H](CN1CCCC1)[C@H](OC(=O)c1ccccc1O)c1ccc2c(c1)OCCO2 [I-d Hemitartrate salt, (1R,2R)-1-(2,3-dihydrobenzo[b][1,4]dioxin-6-yl)-2-octanamido-3-(pyrrolidin-1-yl)propyl 2-hydroxybenzoate] | < 30 min | –
CCCCCCCC(=O)N[C@H](CN1CCCC1)[C@H](OC(=O)COCCOCCOC)c1ccc2c(c1)OCCO2 [II-a, (1R,2R)-1-(2,3-dihydrobenzo[b][1,4]dioxin-6-yl)-2-octanamido-3-(pyrrolidin-1-yl)propyl 2-(2-(2-methoxyethoxy)ethoxy)acetate] | < 30 min | –
CCCCCCCC(=O)N[C@H](CN1CCCC1)[C@H](OC(=O)Cc1ccccc1)c1ccc2c(c1)OCCO2 [I-b Hemitartrate salt, (1R,2R)-1-(2,3-dihydrobenzo[b][1,4]dioxin-6-yl)-2-octanamido-3-(pyrrolidin-1-yl)propyl 2-phenylacetate] | – | half-life (in vitro): < 30 min
CCCCCCCC(=O)N[C@H](CN1CCCC1)[C@H](OC(=O)N(C)C)c1ccc2c(c1)OCCO2 [I-r, (1R,2R)-1-(2,3-dihydrobenzo[b][1,4]dioxin-6-yl)-2-octanamido-3-(pyrrolidin-1-yl)propyl dimethylcarbamate] | < 30 min | –
CCCCCCCCCC(=O)O[C@H](c1ccc2c(c1)OCCO2)[C@@H](CN1CCCC1)NC(=O)CCCCCCC [I-j Hemitartrate salt, (1R,2R)-1-(2,3-dihydrobenzo[b][1,4]dioxin-6-yl)-2-octanamido-3-(pyrrolidin-1-yl)propyl decanoate] | 63 min | –
CCCCCCCC(=O)N[C@H](CN1CCCC1)[C@H](OC(=O)[C@@H](N)C(C)C)c1ccc2c(c1)OCCO2 [I-m Hemitartrate salt] | < 30 min | –
CCCCCCCC(=O)N[C@H](CN1CCCC1)[C@H](OC(=O)c1ccccc1N)c1ccc2c(c1)OCCO2 [I-v, (1R,2R)-1-(2,3-dihydrobenzo[b][1,4]dioxin-6-yl)-2-octanamido-3-(pyrrolidin-1-yl)propyl 2-aminobenzoate] | – | half-life (in vitro): < 30 min
CCCCCCCC(=O)N[C@H](CN1CCCC1)[C@H](OC(=O)CCOCCOCCN)c1ccc2c(c1)OCCO2 [II-b, (1R,2R)-1-(2,3-dihydrobenzo[b][1,4]dioxin-6-yl)-2-octanamido-3-(pyrrolidin-1-yl)propyl 3-(2-(2-aminoethoxy)ethoxy)propanoate] | > 90 min | –
CCCCCCCC(=O)N[C@H](CN1CCCC1)[C@H](OC(=O)c1cccnc1)c1ccc2c(c1)OCCO2 [I-c Hemitartrate salt, (1R,2R)-1-(2,3-dihydrobenzo[b][1,4]dioxin-6-yl)-2-octanamido-3-(pyrrolidin-1-yl)propyl nicotinate] | < 30 min | –
CCCCCCCC(=O)N[C@H](CN1CCCC1)[C@H](OC(=O)[C@H](N)C(C)C)c1ccc2c(c1)OCCO2 [I-l Hydrochloride salt] | < 30 min | –
CCCCCCCC(=O)N[C@H](CN1CCCC1)[C@H](OC(=O)c1ccccc1)c1ccc2c(c1)OCCO2 [I-a Hemitartrate salt, (1R,2R)-1-(2,3-dihydrobenzo[b][1,4]dioxin-6-yl)-2-octanamido-3-(pyrrolidin-1-yl)propyl benzoate] | – | HLM stability (half-life, minutes) [2]: <30 min
CCCCCCCC(=O)N[C@H](CN1CCCC1)[C@H](OC(=O)C(C)C)c1ccc2c(c1)OCCO2 [I-g Hemitartrate salt, (1R,2R)-1-(2,3-dihydrobenzo[b][1,4]dioxin-6-yl)-2-octanamido-3-(pyrrolidin-1-yl)propyl isobutyrate] | < 30 min | –
CCCCCCCC(=O)N[C@H](CN1CCCC1)[C@H](OC(=O)CC)c1ccc2c(c1)OCCO2 [I-f Hemitartrate salt, (1R,2R)-1-(2,3-dihydrobenzo[b][1,4]dioxin-6-yl)-2-octanamido-3-(pyrrolidin-1-yl)propyl propionate] | – | HLM stability (half-life, minutes) [2]: <30 min
CCCCCCCC(=O)N[C@H](CN1CCCC1)[C@H](OC(=O)C(C)(C)C)c1ccc2c(c1)OCCO2 [I-h Hemitartrate salt, (1R,2R)-1-(2,3-dihydrobenzo[b][1,4]dioxin-6-yl)-2-octanamido-3-(pyrrolidin-1-yl)propyl pivalate] | < 30 min | –

SMILES | half-life [1] | further results
CCCCCCCC(=O)N[C@H](CN1CCCC1)[C@H](OC(=O)OCC)c1ccc2c(c1)OCCO2 [I-p Hemitartrate salt, (1R,2R)-1-(2,3-dihydrobenzo[b][1,4]dioxin-6-yl)-2-octanamido-3-(pyrrolidin-1-yl)propyl ethyl carbonate] | < 30 min | –
CCCCCCCC(=O)N[C@H](CN1CCCC1)[C@H](OC(C)=O)c1ccc2c(c1)OCCO2 [I-e Hemitartrate salt, (1R,2R)-1-(2,3-dihydrobenzo[b][1,4]dioxin-6-yl)-2-octanamido-3-(pyrrolidin-1-yl)propyl acetate] | – | HLM stability (half-life, minutes) [2]: <30 min
CCCCCCCC(=O)N[C@H](CN1CCCC1)[C@H](OS(=O)(=O)O)c1ccc2c(c1)OCCO2 [IV-d, (1R,2R)-1-(2,3-dihydrobenzo[b][1,4]dioxin-6-yl)-2-octanamido-3-(pyrrolidin-1-yl)propyl hydrogen sulfate] | > 90 min | –
CCCCCCCC(=O)N[C@H](CN1CCCC1)[C@H](OC(=O)CC(=O)O)c1ccc2c(c1)OCCO2 [I-z, 3-((1R,2R)-1-(2,3-dihydrobenzo[b][1,4]dioxin-6-yl)-2-octanamido-3-(pyrrolidin-1-yl)propoxy)-3-oxopropanoic acid] | > 90 min | –
CCCCCCCC(=O)N[C@H](CN1CCCC1)[C@H](OS(N)(=O)=O)c1ccc2c(c1)OCCO2 [IV-c, (1R,2R)-1-(2,3-dihydrobenzo[b][1,4]dioxin-6-yl)-2-octanamido-3-(pyrrolidin-1-yl)propyl sulfamate] | < 30 min | –
CCCCCCCC(=O)N[C@H](CN1CCCC1)[C@H](O)c1ccc2c(c1)OCCO2 [Eliglustat, N-((1R, 2R)-1-(2,3-dihydrobenzo[b] [1,4]dioxin-6-yl)-1-hydroxy-3-(pyrrolidin-1-yl)propan-2-yl) octanamide] | 30 min | –
CCCCCCCC(=O)N[C@H](CN1CCCC1)[C@H](OC(=O)CCC(=O)O)c1ccc2c(c1)OCCO2 [I-o, 4-((1R,2R)-1-(2,3-dihydrobenzo[b][1,4]dioxin-6-yl)-2-octanamido-3-(pyrrolidin-1-yl)propoxy)-4-oxobutanoic acid] | > 90 min | –
CCCCCCCCCCCC(=O)O[C@H](c1ccc2c(c1)OCCO2)[C@@H](CN1CCCC1)NC(=O)CCCCCCC [I-k Hemitartrate salt, (1R,2R)-1-(2,3-dihydrobenzo[b][1,4]dioxin-6-yl)-2-octanamido-3-(pyrrolidin-1-yl)propyl dodecanoate] | 70 min | –
CCCCCCCC(=O)N[C@H](CN1CCCC1)[C@H](OC(=O)CN(C)C)c1ccc2c(c1)OCCO2 [I-w, (1R,2R)-1-(2,3-dihydrobenzo[b][1,4]dioxin-6-yl)-2-octanamido-3-(pyrrolidin-1-yl)propyl dimethylglycinate] | < 30 min | –
CCCCCCCC(=O)N[C@H](CN1CCCC1)[C@H](OC(=O)CCCCCCC)c1ccc2c(c1)OCCO2 [I-i Hemitartrate salt, (1R,2R)-1-(2,3-dihydrobenzo[b][1,4]dioxin-6-yl)-2-octanamido-3-(pyrrolidin-1-yl)propyl octanoate] | < 30 min | –
CCCCCCCC(=O)N[C@H](CN1CCCC1)[C@H](OC(=O)N1CCC(N2CCCCC2)CC1)c1ccc2c(c1)OCCO2 [I-q, (1R,2R)-1-(2,3-dihydrobenzo[b][1,4]dioxin-6-yl)-2-octanamido-3-(pyrrolidin-1-yl)propyl [1,4′-bipiperidine]-1′-carboxylate] | < 30 min | –
CCCCCCCC(=O)N[C@H](CN1CCCC1)[C@H](OC(=O)NC)c1ccc2c(c1)OCCO2 [I-u Hemitartrate salt, (1R,2R)-1-(2,3-dihydrobenzo[b][1,4]dioxin-6-yl)-2-octanamido-3-(pyrrolidin-1-yl)propyl methylcarbamate] | < 30 min | –
CCCCCCCC(=O)N[C@H](CN1CCCC1)[C@H](OC(=O)/C=C/C(=O)O)c1ccc2c(c1)OCCO2 [I-s, (E)-4-((1R,2R)-1-(2,3-dihydrobenzo[b][1,4]dioxin-6-yl)-2-octanamido-3-(pyrrolidin-1-yl)propoxy)-4-oxobut-2-enoic acid] | 64 min | –
CCCCCCCC(=O)N[C@H](CN1CCCC1)[C@H](OC(=O)CCN1CCOCC1)c1ccc2c(c1)OCCO2 [I-x, (1R,2R)-1-(2,3-dihydrobenzo[b][1,4]dioxin-6-yl)-2-octanamido-3-(pyrrolidin-1-yl)propyl 3-morpholinopropanoate] | < 30 min | –
CCCCCCCC(=O)N[C@H](CN1CCCC1)[C@H](OC(=O)CCCCC)c1ccc2c(c1)OCCO2 [I-aa, (1R,2R)-1-(2,3-dihydrobenzo[b][1,4]dioxin-6-yl)-2-octanamido-3-(pyrrolidin-1-yl)propyl hexanoate] | < 30 min | –
